Data: PubChem BioAssay (NCI)
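Values below derive from 48-hour exposures of cells grown in 96-well plates, with endpoints linearly interpolated between the two concentrations bracketing the appropriate inhibition level. Definition used: TGI = concentration required for complete inhibition of growth.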

How the values were obtained:
Assay in all cases: growth of human tumour cells (NCI), 48 h
SK-MEL-28 melanoma = test system: SK-MEL-28 melanoma
SNB-19 CNS = test system: SNB-19 CNS
KM12 colon = test system: KM12 colon
M19-MEL melanoma = test system: M19-MEL melanoma
DMS 273 small cell lung = test system: DMS 273 small cell lung
SW-620 colon = test system: SW-620 colon
SF-539 CNS = test system: SF-539 CNS
DMS 114 small cell lung = test system: DMS 114 small cell lung
EKVX NSCLC = test system: EKVX NSCLC
DLD-1 colon = test system: DLD-1 colon
SK-MEL-5 melanoma = test system: SK-MEL-5 melanoma
NCI-H460 lung = test system: NCI-H460 lung
HOP-62 NSCLC = test system: HOP-62 NSCLC
HCT-116 colon = test system: HCT-116 colon
CCRF-CEM leukemia = test system: CCRF-CEM leukemia
HL-60(TB) leukemia = test system: HL-60(TB) leukemia
ACHN renal = test system: ACHN renal
HOP-18 NSCLC = test system: HOP-18 NSCLC
K-562 leukemia = test system: K-562 leukemia
OVCAR-8 ovarian = test system: OVCAR-8 ovarian
HCT-15 colon = test system: HCT-15 colon
NCI-H522 lung = test system: NCI-H522 lung
A549 NSCLC = test system: A549 NSCLC
UO-31 renal = test system: UO-31 renal
RPMI-8226 leukemia = test system: RPMI-8226 leukemia
SN12C renal = test system: SN12C renal
HT29 colon = test system: HT29 colon
M14 melanoma = test system: M14 melanoma
NCI-H23 lung = test system: NCI-H23 lung
SK-OV-3 ovarian = test system: SK-OV-3 ovarian
KM20L2 colon = test system: KM20L2 colon
U251 CNS = test system: U251 CNS
MOLT-4 leukemia = test system: MOLT-4 leukemia
UACC-62 melanoma = test system: UACC-62 melanoma
RXF 393 renal = test system: RXF 393 renal
786-0 renal = test system: 786-0 renal
OVCAR-3 ovarian = test system: OVCAR-3 ovarian
TK-10 renal = test system: TK-10 renal
IGROV1 ovarian = test system: IGROV1 ovarian
MALME-3M melanoma = test system: MALME-3M melanoma
SNB-75 CNS = test system: SNB-75 CNS
LOX IMVI melanoma = test system: LOX IMVI melanoma
SF-295 CNS = test system: SF-295 CNS
COLO 205 colon = test system: COLO 205 colon
NCI-H226 lung = test system: NCI-H226 lung
UACC-257 melanoma = test system: UACC-257 melanoma
NCI/ADR-RES ovarian = test system: NCI/ADR-RES ovarian
A498 renal = test system: A498 renal
BT-549 breast = test system: BT-549 breast
DU-145 prostate = test system: DU-145 prostate
MDA-MB-435 = test system: MDA-MB-435
OVCAR-5 ovarian = test system: OVCAR-5 ovarian
HOP-92 NSCLC = test system: HOP-92 NSCLC
T-47D breast = test system: T-47D breast
MDA-N = test system: MDA-N
HCC-2998 colon = test system: HCC-2998 colon
SR leukemia = test system: SR leukemia
HS 578T breast = test system: HS 578T breast
SK-MEL-2 melanoma = test system: SK-MEL-2 melanoma
CAKI-1 renal = test system: CAKI-1 renal
MDA-MB-231 breast = test system: MDA-MB-231 breast
MCF7 breast = test system: MCF7 breast
SF-268 CNS = test system: SF-268 CNS
OVCAR-4 ovarian = test system: OVCAR-4 ovarian
PC-3 prostate = test system: PC-3 prostate

Measured: TGI

COc1ccc(NC(=O)CC(=O)N/N=C(\C)c2cc3ccccc3oc2=O)cc1
not listed: NCI/ADR-RES ovarian | A498 renal | BT-549 breast | DU-145 prostate | MDA-MB-435 | OVCAR-5 ovarian | HOP-92 NSCLC | T-47D breast | MDA-N | HCC-2998 colon | SR leukemia | HS 578T breast | SK-MEL-2 melanoma | CAKI-1 renal | MDA-MB-231 breast | MCF7 breast | SF-268 CNS | OVCAR-4 ovarian | PC-3 prostate
> 100 µM: all other assays above

CC(OP(=O)(O)O)C(N)C(=O)O (stereo not given)
not listed: M19-MEL melanoma | DMS 273 small cell lung | DMS 114 small cell lung | DLD-1 colon | HOP-18 NSCLC | KM20L2 colon
> 100 µM: all other assays above
